# Experimental data: patent publication US9096841B2, “Preparation of beta-amino acids” (BASF SE, priority 2009, dated 2015)
# Legend:
# D-hydantoinase (Sigma) = test: Substrate specificity of Vigna angularis hydantoinase; format: biochemical; settings: Tris buffer pH 7.5, 0.1 M; D-hydantoinase 7 g/L; substrate 5 mM
# Experimental: Various substrates were synthesized as described in Example 4 and subjected to hydantoinase catalyzed conversion [Tris buffer (pH 7.5, 0.1 M, 1.0 mL), D-hydantoinase, (Sigma, 7 g/L), substrate (5 mM solutions predissolved in buffer unless aromatic substituent (4a, 4b, 4c), in which case substrate is dissolved in 100 microlitres DMSO and added to 900 microlitres of buffer)]. The reaction is shown in FIG. 10, the results are shown in Table 4, wherein the E-value is defined as follows: E value=(ln(1−[product](1+ee)))/(ln(1−[product]*(1−ee)))
# [1] = system: hydantoinase obtained from Sigma; test: Specific activity of commercially available hydantoinase (Sigma) towards substrates, HPLC; format: biochemical, Vigna angularis; settings: Enzyme from Sigma; 5 mM substrate, 50 mM Tris HCl pH 7.5, 30 min, 40° C.
# Experimental: (§1) To determine and compare the specific activity of the Sigma enzyme and the purified hydantoinase (BP) 5 mM of hydantoin, 5-phenylhydantoin or 6-phenyldihydrouracil, respectively, in 50 mM Tris HCl pH 7.5 were incubated with different amounts of enzyme for 30 min at 40° C. The reaction was stopped by adding conc. HCl and then measured by HPLC.
# [2] = system: hydantoinase isolated in Example 2; test: Specific activity of the hydantoinase isolated in Example 2 towards substrates, HPLC; format: biochemical, Vigna angularis; settings: Enzyme from Example 2; 5 mM substrate, 50 mM Tris HCl pH 7.5, 30 min, 40° C.
# Experimental: as §1
# [3] = system: hydantoinase (obtained from Sigma); test: Hydantoinase catalysed hydrolysis of racemic 6-PDHU and reverse cyclisation, chiral reverse-phase HPLC; format: biochemical, Vigna angularis; settings: for cyclisation of N-carbamoyl-β-phenylalanine (reverse reaction): with hydantoinase
# Experimental: Unless otherwise stated all experiments were carried out on a 5 mM scale of 6-PDHU (4.75 mg) in 5 mL tris buffer (0.1 M pH 7.5) with 1U of commercially available hydantoinase from Vigna angularis (35 mg, obtained from Sigma, St. Louis, USA) in 15 mL Falcon tubes, incubated in a thermomixer (Falcon) at 750 rpm and a temperature of 50° C.
# For chiral rpHPLC the following column, buffer and running conditions were used: • Astec Chirobiotic™ T 25 cm×4.6 mm, 5 μm (Sigma-Aldrich, St. Louis, USA) Ammonium Acetate buffer (pH 5.5):Methanol, 70:30, 25° C., 0.5 mL/min
# Initially the hydantoinase (obtained form Sigma, St. Louis, USA) catalysed hydrolysis of (±)-6-PDHU (racemic 6-phenyldihydrouracil) (4a in FIG. 2: R=Ph) was studied as a model system. Reactions were carried out at a substrate concentration of 5 mM in Tris buffer [pH 7.5] and monitored by reverse-phase chiral HPLC as described in Example 7, which allowed simultaneous determination of both the extent of conversion in the reaction and also the enantiomeric excess of unreacted dihydrouracil 4a and the N-carbamoyl derivative 5 (FIG. 4, cf. also Scheme 2). […] All reactions gave an equilibrium concentration of 6-PDHU:(S)-NCBPA=51:49. The enantiomeric excess of (S)-NCBPA exceeded 96% during the whole observation period.
# [4] = system: Pseudomonas putida IFO 12996; settings: hydrolysis using Pseudomonas putida IFO 12996, JP06261787; cited from earlier work
# [5] = system: D-hydantoinase from Sigma; test: pH/buffer dependency of hydantoinase conversion of 6-PDHU; format: biochemical, Vigna angularis; settings: 22 hours
# Experimental: 6-PDHU was incubated in phosphate buffer (0.1 M, potassium dihydrogen phosphate and dipotassium hydrogen phosphate, volumes adjusted to the appropriate pH) or Tris buffer at various pH values for (up to 8h, using 7 g/L D-hydantoinase from Sigma). […] In an additional experiment conversion rates were determined for phosphate or Tris buffers at various pH values over time. 5 mM 6-PHDU was incubated in phosphate buffer (pH 6.0, 7.0, 7.5, 8.0) and Tris buffer (pH 7.5) buffers for 22 hours. The results are shown in FIG. 9 (wherein diamonds, squares, triangles and crosses represent phosphate buffer at pH 6, pH 7, pH 7.5 or pH 8, respectively, and dots represents Tris buffer at pH 7.5) and Table 3 (ee=enantiomeric excess [%]).
# [6] = pH dependency of chemical hydrolysis of 6-PDHU in Tris buffer without enzyme; format: physicochemical; settings: 24 hours, no enzyme
# Experimental: 6-PDHU was incubated at 50° C. for 24 hours in Tris buffer at different pH values. Appreciable background hydrolysis of 6-PDHU occurred with a strong pH and buffer dependency. In Tris buffer at pH 7, a background hydrolysis of 0.5% was observed. At pH 9, the background hydrolysis amounted to ca. 20% (FIG. 7).
structure (smiles),measurement,setting,value
"CC1CNC(=O)NC1=O (stereo not shown) [Substrate 8, 5-methyldihydrouracil]",Relative rate of enzymatic hydrolysis,D-hydantoinase (Sigma),23
"O=C1CCNC(=O)N1 [Substrate 4e, dihydrouracil]",Relative rate of enzymatic hydrolysis,D-hydantoinase (Sigma),100
"O=C1CNC(=O)N1 [Hydantoin, hydantoin]",specific activity,[1],217
same,specific activity,[2],425
"NC(=O)N[C@H](CC(=O)O)c1ccccc1 [(R)-NCBPA, (R)—N-carbamoyl-β-phenylalanine]",cyclisation of N-carbamoyl-β-phenylalanine (reverse reaction),[3],no appreciable cyclisation
"O=C1CC(c2ccccc2)NC(=O)N1 (racemic) [Substrate 4a, (±)-6-phenyldihydrouracil]",specific activity,[1],6
same,E value,"[3]; selective for the (S)-enantiomer, 5 mM substrate, Tris buffer pH 7.5",> 100
same,enantiomeric excess,[4],up to 51%
same,ee (enantiomeric excess),"[5]; Phosphate buffer pH 6.00, 5 mM",>99.90%
same,ee (enantiomeric excess),"[5]; Phosphate buffer pH 7.00, 5 mM",>99.90%
same,ee (enantiomeric excess),"[5]; Phosphate buffer pH 7.50, 5 mM",96.62%
same,ee (enantiomeric excess),"[5]; Phosphate buffer pH 8.00, 5 mM",92.73%
same,ee (enantiomeric excess),"[5]; Tris buffer pH 7.50, 5 mM",>99.90%
same,background hydrolysis,"[6]; Tris buffer pH 7, 50° C.",0.5%
same,background hydrolysis,"[6]; Tris buffer pH 9, 50° C.",ca. 20%
same,E value,D-hydantoinase (Sigma),>200
same,Relative rate of enzymatic hydrolysis,D-hydantoinase (Sigma),7
same,specific activity,[2],72
"O=C1CC(c2ccc(F)cc2)NC(=O)N1 (stereo not shown) [Substrate 4b, 6-(4-fluoro-phenyl)-dihydrouracil]",E value,D-hydantoinase (Sigma),>100
same,Relative rate of enzymatic hydrolysis,D-hydantoinase (Sigma),15
"NC(=O)N[C@@H](CC(=O)O)c1ccccc1 [(S)-NCBPA, (S)-N-carbamoyl-β-pheynylalanine]",enantiomeric excess of (S)-NCBPA,[3]; during the whole observation period,exceeded 96%
"O=C1NC(=O)C(c2ccccc2)N1 (stereo not shown) [5-Phenylhydantoin, 5-phenylhydantoin]",specific activity,[1],261
same,specific activity,[2],557
"O=C1CC(c2ccc(Cl)cc2)NC(=O)N1 (stereo not shown) [Substrate 4c, 6-(4-chloro-phenyl)-dihydrouracil]",E value,D-hydantoinase (Sigma),>100
same,Relative rate of enzymatic hydrolysis,D-hydantoinase (Sigma),41
"NC(=O)NC(CC(=O)O)c1ccccc1 (racemic) [N-carbamoyl-β-phenylalanine, (±)—N-carbamoyl-β-phenylalanine]",cyclisation of N-carbamoyl-β-phenylalanine (reverse reaction),[3],highly (S)-selective
"CC1CC(=O)NC(=O)N1 (stereo not shown) [Substrate 4h, 6-methyldihydrouracil]",E value,D-hydantoinase (Sigma),5
same,Relative rate of enzymatic hydrolysis,D-hydantoinase (Sigma),52
